Source: US9326973B2, “Hepatitis C virus inhibitors” (priority 2012, dated 2016)

system: HCV replicon, genotype-1a variant with glutamine 30 changed to glutamate in the NS5A protein; assay: microbe, parasite or virus in culture; assay type: cell-based, HCV genotype 1a; conditions: HCV replicon genotype 1a Q30E (Q→E) variant; test compound titrated with an NS5A-targeting compound (BMS-790052 fixed at 200 nM); ranking of synergist activity
In short: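 Synergy was assessed by combining several fixed amounts of an NS5A-targeting compound with a titration of the second compound of interest.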

Compound | Fold-Synergistic 1a (Q30E) [fold]
C[C@@H]1CN(C(=O)C(C)(C)C(=O)N[C@H](c2nc(-c3ccc(-c4ccc(-c5c[nH]c([C@@H](NC(=O)C(C)(C)C(=O)N6C[C@@H](C)O[C@@H](C)C6)C(C)(C)C)n5)cc4)cc3)c[nH]2)C(C)(C)C)C[C@H](C)O1 [Compound W-154] | >100
CC(C)(C)[C@H](NC(=O)[C@@]1(C)CCCCO1)c1nc(-c2ccc(-c3ccc(-c4c[nH]c([C@@H](NC(=O)[C@@]5(C)CCCCO5)C(C)(C)C)n4)cc3)cc2)c[nH]1 [Compound P-176] | >100
CC(C)(CF)C(=O)N[C@H](c1nc(-c2ccc(-c3ccc(-c4c[nH]c([C@@H](NC(=O)C(C)(C)CF)C5(C)CC5)n4)cc3)cc2)c[nH]1)C1(C)CC1 [Compound P-143] | >100
CC(C)(C)OC(=O)N1CC(C)(C)OC[C@H]1C(=O)N[C@H](c1nc(-c2ccc(-c3ccc(-c4c[nH]c([C@@H](NC(=O)[C@@H]5COC(C)(C)CN5C(=O)OC(C)(C)C)C(C)(C)C)n4)cc3)cc2)c[nH]1)C(C)(C)C [Compound L-60] | >100
CC(C)(C)OC(=O)NC1(C(=O)N[C@H](c2nc(-c3ccc(-c4ccc(-c5c[nH]c([C@@H](NC(=O)C6(NC(=O)OC(C)(C)C)CCC(F)(F)CC6)C(C)(C)C)n5)cc4)cc3)c[nH]2)C(C)(C)C)CCC(F)(F)CC1 [Compound L-49] | >100
COC(=O)N[C@@H](C(=O)NC1(c2nc(-c3ccc(-c4ccc(-c5c[nH]c(C6(NC(=O)[C@H](NC(=O)OC)C(C)C)CCCCC6)n5)cc4)cc3)c[nH]2)CCCCC1)C(C)C [Compound N-22] | >10
CC(C)(C)OC(=O)N1C[C@H]2CC2[C@H]1C(=O)N[C@H](c1nc(-c2ccc(-c3ccc(-c4c[nH]c([C@@H](NC(=O)[C@@H]5C6C[C@@H]6CN5C(=O)OC(C)(C)C)C5(C)CC5)n4)cc3)cc2)c[nH]1)C1(C)CC1 (stereo partly shown) [Compound W-75] | >100
O=C(Cc1c[nH]c2ccccc12)N1CCC[C@H]1c1ncc(-c2ccc(-c3ccc(-c4cnc([C@@H]5CCCN5C(=O)Cc5c[nH]c6ccccc56)[nH]4)cc3)cc2)[nH]1 [Compound S-148] | >10
N#Cc1ccccc1C(=O)N1CCC[C@H]1c1ncc(-c2ccc(-c3ccc(-c4cnc([C@@H]5CCCN5C(=O)c5ccccc5C#N)[nH]4)cc3)cc2)[nH]1 [Compound S-127] | <10
CC(C)[C@H](NC(=O)[C@@]1(C)CC(F)(F)CCO1)c1nc(-c2ccc(-c3ccc(-c4c[nH]c([C@@H](NC(=O)[C@@]5(C)CC(F)(F)CCO5)C(C)C)n4)cc3)cc2)c[nH]1 [Compound Y-79] | >100
CCN(CCOC)C(=O)C(C)(C)C(=O)N[C@H](c1nc(-c2ccc(-c3ccc(-c4c[nH]c([C@@H](NC(=O)C(C)(C)C(=O)N(CC)CCOC)C(C)(C)C)n4)cc3)cc2)c[nH]1)C(C)(C)C [Compound W-157] | >10
COc1ccc(C2(C(=O)N3CCC[C@H]3c3ncc(-c4ccc(-c5ccc(-c6cnc([C@@H]7CCCN7C(=O)C7(c8ccc(OC)cc8)CCCC7)[nH]6)cc5)cc4)[nH]3)CCCC2)cc1 [Compound S-158] | <10
CC(C)CC(=O)N[C@H](c1nc(-c2ccc3cc(-c4ccc(-c5cnc([C@@H](NC(=O)CC(C)C)C(C)C)[nH]5)cc4)ccc3c2)c[nH]1)C(C)C [Compound P-2] | >10
O=C(c1cnc2n(c1=O)CCS2)N1CCC[C@H]1c1ncc(-c2ccc(-c3ccc(-c4cnc([C@@H]5CCCN5C(=O)c5cnc6n(c5=O)CCS6)[nH]4)cc3)cc2)[nH]1 [Compound S-135] | <10
CC(C)N(C(=O)C(=O)N[C@H](c1nc(-c2ccc(-c3ccc(-c4c[nH]c([C@@H](NC(=O)C(=O)N(C(C)C)C5CC5)C5CC5)n4)cc3)cc2)c[nH]1)C1CC1)C1CC1 [Compound L-36] | >100
CC(C)N(C(=O)C(=O)N[C@H](c1nc(-c2ccc(-c3ccc(-c4c[nH]c([C@@H](NC(=O)C(=O)N(C(C)C)C5CC5)C(C)(C)C)n4)cc3)cc2)c[nH]1)C(C)(C)C)C1CC1 [Compound W-49] | >100
COC(=O)N[C@H](C(=O)N[C@H](c1nc(-c2ccc3cc(-c4ccc(-c5cnc([C@@H](NC(=O)[C@@H](NC(=O)OC)C(C)C)C(C)(C)C)[nH]5)cc4)ccc3c2)c[nH]1)C(C)(C)C)C(C)C [Compound N-7] | <10
CC(C)CC(=O)N[C@@H](Cc1cccc2ccccc12)c1nc(-c2ccc(-c3ccc(-c4c[nH]c([C@H](Cc5cccc6ccccc56)NC(=O)CC(C)C)n4)cc3)cc2)c[nH]1 [Compound P-7] | <10
CC1([C@H](NC(=O)C(=O)N2CCCCCC2)c2nc(-c3ccc(-c4ccc(-c5c[nH]c([C@@H](NC(=O)C(=O)N6CCCCCC6)C6(C)CC6)n5)cc4)cc3)c[nH]2)CC1 [Compound W-57] | >100
CC(C)(C(=O)N[C@H](c1nc(-c2ccc(-c3ccc(-c4c[nH]c([C@@H](NC(=O)C(C)(C)C5(O)CCC(F)(F)CC5)C5CC5)n4)cc3)cc2)c[nH]1)C1CC1)C1(O)CCC(F)(F)CC1 [Compound L-91] | >100

Compound | Fold-Synergistic 1a (Q30E) [fold]
CC(C)(C)OC(=O)N1CCC[C@H]1C(=O)N[C@H](c1nc(-c2ccc(-c3ccc(-c4c[nH]c([C@@H](NC(=O)[C@@H]5CCCN5C(=O)OC(C)(C)C)C(C)(C)C)n4)cc3)cc2)c[nH]1)C(C)(C)C [Compound W-86] | >100
C[C@H]1CCN(C(=O)C(=O)N2CCC(F)(F)CC2)C1c1nc(-c2ccc(-c3ccc(-c4c[nH]c([C@@H]5[C@@H](C)CCN5C(=O)C(=O)N5CCC(F)(F)CC5)n4)cc3)cc2)c[nH]1 (stereo partly shown) [Compound W-186] | >100
O=C(c1ccc2c(c1)OCO2)N1CCC[C@H]1c1ncc(-c2ccc(-c3ccc(-c4cnc([C@@H]5CCCN5C(=O)c5ccc6c(c5)OCO6)[nH]4)cc3)cc2)[nH]1 [Compound S-121] | <10
CC(C)(C)[C@H](NC(=O)[C@H](O)C(F)(F)F)c1nc(-c2ccc(-c3ccc(-c4c[nH]c([C@@H](NC(=O)[C@H](O)C(F)(F)F)C(C)(C)C)n4)cc3)cc2)c[nH]1 [Compound L-81] | >100
CCC(=O)N1CCC[C@H]1c1ncc(-c2ccc(-c3ccc(-c4cnc([C@@H]5CCCN5C(=O)CC)[nH]4)cc3)cc2)[nH]1 [Compound S-108] | <10
CC(C)(C)[C@H](NC(=O)[C@H]1CC[C@@H](O)CC1)c1nc(-c2ccc(-c3ccc(-c4c[nH]c([C@@H](NC(=O)[C@H]5CC[C@@H](O)CC5)C(C)(C)C)n4)cc3)cc2)c[nH]1 [Compound W-134] | >100
CC(C)(C)OC(=O)N1C[C@@H](O)C[C@H]1C(=O)N[C@H](c1nc(-c2ccc(-c3ccc(-c4c[nH]c([C@@H](NC(=O)[C@@H]5C[C@H](O)CN5C(=O)OC(C)(C)C)C5(C)CC5)n4)cc3)cc2)c[nH]1)C1(C)CC1 [Compound W-99] | >100
CN1CCN(C(=O)C(=O)N[C@H](c2nc(-c3ccc(-c4ccc(-c5c[nH]c([C@@H](NC(=O)C(=O)N6CCN(C)CC6)C(C)(C)C)n5)cc4)cc3)c[nH]2)C(C)(C)C)CC1 [Compound W-35] | >100
CC(C)[C@H](NC(=O)C1(C)CCCCC1)c1nc(-c2ccc3c(c2)Cc2cc(-c4c[nH]c([C@@H](NC(=O)C5(C)CCCCC5)C(C)C)n4)ccc2-3)c[nH]1 [Compound N-69] | >100
Cc1ncccc1C(=O)N1CCC[C@H]1c1ncc(-c2ccc(-c3ccc(-c4cnc([C@@H]5CCCN5C(=O)c5cccnc5C)[nH]4)cc3)cc2)[nH]1 [Compound S-188] | <10
CC(C)C(c1ncc(-c2ccc(-c3ccc(-c4cnc(C(C(C)C)N5CCCCC5=O)[nH]4)cc3)cc2)[nH]1)N1CCCCC1=O (stereo not shown) [Compound P-52] | >10
O=C(c1cccc(-c2ccccc2)c1)N1CCC[C@H]1c1ncc(-c2ccc(-c3ccc(-c4cnc([C@@H]5CCCN5C(=O)c5cccc(-c6ccccc6)c5)[nH]4)cc3)cc2)[nH]1 [Compound S-128] | >10
CC(C)(C)[C@H](NC(=O)C12CCC(CC1)C2)c1nc(-c2ccc(-c3ccc(-c4c[nH]c([C@@H](NC(=O)C56CCC(CC5)C6)C(C)(C)C)n4)cc3)cc2)c[nH]1 [Compound S-261] | >100
O=C(c1ccccc1Oc1ccccc1)N1CCC[C@H]1c1ncc(-c2ccc(-c3ccc(-c4cnc([C@@H]5CCCN5C(=O)c5ccccc5Oc5ccccc5)[nH]4)cc3)cc2)[nH]1 [Compound S-114] | <10
CC(C)N(CC(F)(F)F)C(=O)C(=O)N[C@H](c1nc(-c2ccc(-c3ccc(-c4c[nH]c([C@@H](NC(=O)C(=O)N(CC(F)(F)F)C(C)C)C(C)(C)C)n4)cc3)cc2)c[nH]1)C(C)(C)C [Compound W-66] | >100
COc1cc2ccccc2c(C(=O)N2CCCC2c2ncc(-c3ccc(-c4ccc(-c5cnc(C(NC(=O)C(C)(C)C)C(C)C)[nH]5)cc4)cc3)[nH]2)n1 (stereo not shown) [Compound Y-13] | >100
CCN(CC(F)(F)F)C(=O)C(=O)N[C@H](c1nc(-c2ccc(-c3ccc(-c4c[nH]c([C@@H](NC(=O)C(=O)N(CC)CC(F)(F)F)C(C)C)n4)cc3)cc2)c[nH]1)C(C)C [Compound W-56] | >100
CCCC[C@@H](CC(=O)OC(C)(C)C)C(=O)N[C@H](c1nc(-c2ccc(-c3ccc(-c4c[nH]c([C@@H](NC(=O)[C@@H](CCCC)CC(=O)OC(C)(C)C)C(C)(C)C)n4)cc3)cc2)c[nH]1)C(C)(C)C [Compound S-260] | >100
CC(C)(C)[C@H](NC(=O)C1(NCC(F)(F)F)CC1)c1nc(-c2ccc(-c3ccc(-c4c[nH]c([C@@H](NC(=O)C5(NCC(F)(F)F)CC5)C(C)(C)C)n4)cc3)cc2)c[nH]1 [Compound L-96] | >100
CC(C)(C)[C@H](NC(=O)[C@H]1C[C@](C)(O)C1)c1nc(-c2ccc(-c3ccc(-c4c[nH]c([C@@H](NC(=O)[C@H]5C[C@](C)(O)C5)C(C)(C)C)n4)cc3)cc2)c[nH]1 [Compound W-170] | >100
